Measurements reported in US20050112260A1, “Monatin tabletop sweetener compositions and methods of making same” (Cargill, Inc., priority 2003, published 2005).
Residues, ends and D or L forms follow the SMILES beside them.

What was measured:
[1] = Sensory stability of monatin and aspartame at pH 2.5, 3.0, 4.0 at 40° C. (sweetness vs sucrose standards, panel n=8); assay type: physicochemical; settings: for Rate constant (k; day^−1) of sweetness loss: pseudo-first order assumed
Protocol: The sensory stability of monatin solutions prepared at pH 2.5, 3.0 and 4.0 and stored at 40° C. was monitored for 100 days. Loss of sweetness from these solutions was compared with the losses of sweetness from aspartame solutions prepared and stored under identical conditions.
The sensory stability of monatin (8% SEV, ˜55 ppm, synthetic blend containing approximately 96% of the 2R,4R/2S, 4S enantiometric pair and 4% of the 2R,4S/2S,4R enantiometric pair) in phosphate/citrate buffers having a pH of 2.5, 3.0, and 4.0 was examined after storage at 40° C. The stability of monatin was compared to that of aspartame (400 ppm) in the same buffers. Three sucrose reference solutions were prepared in the same phosphate/citrate buffers as the monatin and aspartame solutions. All prepared solutions were stored in the dark.
• pH2.5 Phosphoric acid (75% solution) 0.127% (w/v) • Tri-sodium citrate monohydrate 0.005% (w/v) • pH3.0 Phosphoric acid (75% solution) 0.092% (w/v) • Tri-sodium citrate monohydrate 0.031% (w/v) • pH4.0 Phosphoric acid (75% solution) 0.071% (w/v) • Tri-sodium citrate monohydrate 0.047% (w/v)
The sweetness of each sweetener relative to sucrose was assessed in duplicate by a small panel (n=8) of trained sensory evaluators experienced in the sweetness estimation procedure. All samples (in the same buffers) were served in duplicate at a temperature of 22° C.±1° C. Monatin (test) solutions, coded with 3 digit random number codes were presented individually to panelists, in random order. Sucrose reference standards, ranging from 4.0-10.0% (w/v) sucrose, increasing in steps of 0.5% (w/v) sucrose were also provided. Panelists were asked to estimate sweetness by comparing the sweetness of the test solution to the sucrose standards. This was carried out by taking 3 sips of the test solution, followed by a sip of water, followed by 3 sips of sucrose standard followed by a sip of water, etc. Panelists were encouraged to estimate the sweetness to one decimal place, e.g., 6.8, 8.5. A five minute rest period was imposed between evaluating the test solutions. Panelists were also asked to rinse well and eat a cracker to reduce any potential carry over effects.
If a pseudo-first order breakdown reaction is assumed, a plot of logn percentage retention versus time (logn% RTN v. t) allows estimation of the half-life (t½) and rate constant (k) of sweetness loss under any given set of conditions. In so doing, the kinetics of monatin and aspartame sweetness loss may be summarized as follows in Table 13.

[2] = Sensory evaluation of table-top sweeteners in coffee and iced tea (panel n=6); assay type: in vivo; settings: 200 ml serving
Protocol: Monatin table-top formulations, including R,R monatin or R,R monatin/erythritol combinations, were assessed relative to other known sweeteners (aspartame and sucralose) in coffee and iced tea. The key sensory parameters assessed included sweetness quality, aftertaste, bitter taste and its aftertaste. Qualitative evaluation has been carried out.
Standard coffee was used in which to evaluate sweetener performance (Table 7).
Sweeteners were added to coffee at the following concentrations: • Aspartame 0.025% (w/v) • Sucralose 0.0082% (w/v) • R,R monatin* 0.0020, 0.0025, 0.0030% (w/v) plus 1 g maltodextrin • R,R monatin/erythritol 0.0020, 0.0025, 0.0030% (w/v) plus 1 g erythritol (ii) Iced Tea
An ice tea formulation was developed to evaluate sweetener performance (Table 8).
Sweeteners were added to tea at the following concentrations:
The evaluation of these coffee and tea drinks was carried out by a small (n=6) panel of experienced sensory evaluators who evaluated the coffee products on one tasting occasion and the tea products on a subsequent occasion.

[3] = Sweetness relative to sucrose, panel of trained sensory evaluators, dose response curve; assay type: in vivo; settings: slope of dose response curve at 8% sucrose equivalence value (SEV)
Protocol: One assesses sweetness of a sweetener relative to sucrose by using a panel of trained sensory evaluators experienced in the sweetness estimation procedure. All samples (in same buffers) are served in duplicate at a temperature of 22° C.±1° C. Test solutions, coded with 3 digit random number codes, are presented individually to panelists, in random order. Sucrose reference standards, ranging from 4.0-10.0% (w/v) sucrose, increasing in steps of 0.5% (w/v) sucrose are also provided. Panelists are asked to estimate sweetness by comparing the sweetness of the test solution to the sucrose standards. […] Using information obtained from the panelists, the sweetness intensity or potency is calculated by dividing sucrose equivalent value (SEV) (e.g., % sucrose) by the % monatin at a particular point in a dose response curve.
The S,S stereoisomer of monatin is approximately 50-200 times sweeter than sucrose by weight. […] As discussed above, the sweetness of the monatin is calculated using experienced sensory evaluators in a sweetness comparison procedure, where a test sweetener solution is matched for sweetness intensity against one of a series of reference solutions. […] The intensity sweetness is calculated as the slope in a dose response curve, where the % sucrose is divided by the % monatin. […]

[4] = pH 2.5, 40° C., day 1, aspartame 400 ppm
[5] = pH 2.5, 40° C., day 2, aspartame 400 ppm
[6] = pH 2.5, 40° C., day 3, aspartame 400 ppm
[7] = pH 2.5, 40° C., day 4, aspartame 400 ppm
[8] = pH 2.5, 40° C., day 7, aspartame 400 ppm
[9] = pH 2.5, 40° C., day 8, aspartame 400 ppm
[10] = pH 2.5, 40° C., day 9, aspartame 400 ppm
[11] = pH 2.5, 40° C., day 11, aspartame 400 ppm
[12] = pH 2.5, 40° C., day 50, aspartame 400 ppm
[13] = pH 2.5, 40° C., day 100, aspartame 400 ppm
[14] = pH 3.0, 40° C., day 1, aspartame 400 ppm
[15] = pH 3.0, 40° C., day 2, aspartame 400 ppm
[16] = pH 3.0, 40° C., day 3, aspartame 400 ppm
[17] = pH 3.0, 40° C., day 4, aspartame 400 ppm
[18] = pH 3.0, 40° C., day 7, aspartame 400 ppm
[19] = pH 3.0, 40° C., day 8, aspartame 400 ppm
[20] = pH 3.0, 40° C., day 9, aspartame 400 ppm
[21] = pH 3.0, 40° C., day 11, aspartame 400 ppm
[22] = pH 3.0, 40° C., day 50, aspartame 400 ppm
[23] = pH 3.0, 40° C., day 100, aspartame 400 ppm
[24] = pH 4.0, 40° C., day 3, aspartame 400 ppm
[25] = pH 4.0, 40° C., day 8, aspartame 400 ppm
[26] = pH 4.0, 40° C., day 11, aspartame 400 ppm
[27] = pH 4.0, 40° C., day 17, aspartame 400 ppm
[28] = pH 4.0, 40° C., day 24, aspartame 400 ppm
[29] = pH 4.0, 40° C., day 50, aspartame 400 ppm
[30] = pH 4.0, 40° C., day 100, aspartame 400 ppm

SMILES: COC(=O)[C@H](Cc1ccccc1)NC(=O)[C@@H](N)CC(=O)O [Aspartame, reference compound] (H-Asp-Phe-OMe)
- SEV Aspartame (% sucrose) ([1]; pH 2.5, 40° C., day 0, aspartame 400 ppm): 7.34 % sucrose
- Retention of Aspartame Sweetness (%) [1, 4]: 94.0%
- SEV Aspartame (% sucrose) [1, 4]: 6.90 % sucrose
- Retention of Aspartame Sweetness (%) [1, 5]: 92.6%
- SEV Aspartame (% sucrose) [1, 5]: 6.80 % sucrose
- Retention of Aspartame Sweetness (%) [1, 6]: 89.9%
- SEV Aspartame (% sucrose) [1, 6]: 6.60 % sucrose
- Retention of Aspartame Sweetness (%) [1, 7]: 85.7%
- SEV Aspartame (% sucrose) [1, 7]: 6.29 % sucrose
- Retention of Aspartame Sweetness (%) [1, 8]: 81.9%
- SEV Aspartame (% sucrose) [1, 8]: 6.01 % sucrose
- Retention of Aspartame Sweetness (%) [1, 9]: 81.5%
- SEV Aspartame (% sucrose) [1, 9]: 5.98 % sucrose
- Retention of Aspartame Sweetness (%) [1, 10]: 81.3%
- SEV Aspartame (% sucrose) [1, 10]: 5.97 % sucrose
- Retention of Aspartame Sweetness (%) [1, 11]: 79.8%
- SEV Aspartame (% sucrose) [1, 11]: 5.86 % sucrose
- Retention of Aspartame Sweetness (%) [1, 12]: 57.1%
- SEV Aspartame (% sucrose) [1, 12]: 4.19 % sucrose
- Retention of Aspartame Sweetness (%) [1, 13]: 10.9%
- SEV Aspartame (% sucrose) [1, 13]: 0.80 % sucrose
- Rate constant (k; day^−1) of sweetness loss ([1]; pH 2.5, 40° C.): 0.013 day⁻¹
- Sweetness Retained (%) ([1]; pH 2.5, 100 days storage at 40° C.): 11%
- SEV Aspartame (% sucrose) ([1]; pH 3.0, 40° C., day 0, aspartame 400 ppm): 7.15 % sucrose
- Retention of Aspartame Sweetness (%) [1, 14]: 96.5%
- SEV Aspartame (% sucrose) [1, 14]: 6.90 % sucrose
- Retention of Aspartame Sweetness (%) [1, 15]: 96.1%
- SEV Aspartame (% sucrose) [1, 15]: 6.87 % sucrose
- Retention of Aspartame Sweetness (%) [1, 16]: 92.3%
- SEV Aspartame (% sucrose) [1, 16]: 6.60 % sucrose
- Retention of Aspartame Sweetness (%) [1, 17]: 89.9%
- SEV Aspartame (% sucrose) [1, 17]: 6.43 % sucrose
- Retention of Aspartame Sweetness (%) [1, 18]: 86.3%
- SEV Aspartame (% sucrose) [1, 18]: 6.17 % sucrose
- Retention of Aspartame Sweetness (%) [1, 19]: 82.9%
- SEV Aspartame (% sucrose) [1, 19]: 5.93 % sucrose
- Retention of Aspartame Sweetness (%) [1, 20]: 83.1%
- SEV Aspartame (% sucrose) [1, 20]: 5.94 % sucrose
- Retention of Aspartame Sweetness (%) [1, 21]: 81.5%
- SEV Aspartame (% sucrose) [1, 21]: 5.83 % sucrose
- Retention of Aspartame Sweetness (%) [1, 22]: 65.9%
- SEV Aspartame (% sucrose) [1, 22]: 4.71 % sucrose
- Retention of Aspartame Sweetness (%) [1, 23]: 30.8%
- SEV Aspartame (% sucrose) [1, 23]: 2.20 % sucrose
- Rate constant (k; day^−1) of sweetness loss ([1]; pH 3.0, 40° C.): 0.009 day⁻¹
- Sweetness Retained (%) ([1]; pH 3.0, 100 days storage at 40° C.): 31%
- SEV Aspartame (% sucrose) ([1]; pH 4.0, 40° C., day 0, aspartame 400 ppm): 7.10 % sucrose
- Retention of Aspartame Sweetness (%) [1, 24]: 95.1%
- SEV Aspartame (% sucrose) [1, 24]: 6.75 % sucrose
- Retention of Aspartame Sweetness (%) [1, 25]: 87.8%
- SEV Aspartame (% sucrose) [1, 25]: 6.23 % sucrose
- Retention of Aspartame Sweetness (%) [1, 26]: 84.8%
- SEV Aspartame (% sucrose) [1, 26]: 6.02 % sucrose
- Retention of Aspartame Sweetness (%) [1, 27]: 81.0%
- SEV Aspartame (% sucrose) [1, 27]: 5.75 % sucrose
- Retention of Aspartame Sweetness (%) [1, 28]: 82.4%
- SEV Aspartame (% sucrose) [1, 28]: 5.85 % sucrose
- Retention of Aspartame Sweetness (%) [1, 29]: 74.5%
- SEV Aspartame (% sucrose) [1, 29]: 5.29 % sucrose
- Retention of Aspartame Sweetness (%) [1, 30]: 57.7%
- SEV Aspartame (% sucrose) [1, 30]: 4.10 % sucrose
- Rate constant (k; day^−1) of sweetness loss ([1]; pH 4.0, 40° C.): 0.005 day⁻¹
- Sweetness Retained (%) ([1]; pH 4.0, 100 days storage at 40° C.): 58%
- Comments (sensory evaluation) ([2]; Coffee, Aspartame 250 ppm): Balanced sweetness profile. Very low level

SMILES: NC(CC(O)(Cc1c[nH]c2ccccc12)C(=O)O)C(=O)O (centres unmarked) [S,S monatin]
- sweetness compared to sucrose by weight [3]: 50-200 times sweeter than sucrose by weight

SMILES: OC[C@H]1O[C@H](O[C@]2(CCl)O[C@H](CCl)[C@@H](O)[C@@H]2O)[C@H](O)[C@@H](O)[C@H]1Cl [Sucralose]
- Comments (sensory evaluation) ([2]; Coffee, Sucralose 82 ppm): Slow sweetness onset allows stronger
- Comments (sensory evaluation) ([2]; Iced Tea, Sucralose 170 ppm): Delay in sweetness onset means first

SMILES: N[C@H](C[C@](O)(Cc1c[nH]c2ccccc12)C(=O)O)C(=O)O [R,R monatin]
- sweetness compared to sucrose by weight [3]: 2000-2400 times sweeter than sucrose by weight
